Data published in patent US20200046774A1, “COMPOSITION FOR PREVENTING OR TREATING BONE DISEASES WHICH HAS EXCELLENT BONE REGENERATION EFFECT” (KOREA UNIVERSITY RESEARCH AND BUSINESS FOUNDATION, priority 2017, published 2020).

Columns and labels:
[1] = system: HGPRT knockout cell line of Example 14; details: after 9 days of 6-TG treatment, in comparison to the TDF cell line of Example 3; FIG. 20
[2] = system: TDF cell line of Example 3; assay: Evaluation of apoptosis by gancyclovir treatment (HSV-tk kill switch); format: cell-based; details: 0, 50 and 500 μg/ml, 72 hours to 124 hours; depending on concentration and time; FIGS. 12 and 13
Experimental: TDF cell line of Example 3, a cell line of Example 3 was treated with gancyclovir in concentrations of 0 μg/ml, 50 μg/ml and 500 μg/ml, respectively, and the number of cells was observed and analyzed for a period of 72 hours to 124 hours, as shown in FIGS. 12 and 13.

[3] = system: alkaline phosphatase (ALP); assay: ALP activity (early osteogenic induction ability), OIM or GM culture; details: 1 ng/ml, 2 ng/ml and 5 ng/ml of BMP-2, 7 days after induction of osteogenesis, versus control not treated with BMP-2; FIG. 4
Experimental: After 3 days and 7 days of the culturing, samples were washed twice with a PBS solution, and dissolved in a cell lysis buffer to which 0.1% Triton X-10 was added.
Lysed cells were centrifuged at 4° C. and 13000 rpm for 30 minutes, and then a supernatant was recovered and quantitated by a Bradford assay. The ALP activity was measured at 405 nm for the same amount of proteins using an ALP kit (AnaSpec), and the results are shown in FIG. 3.

Nc1nc2[nH]cnc2c(=S)[nH]1 [Example 6-TG, 6-tioguanine]
cell survival under 6-TG treatment [1]: more cells survived

Nc1nc(O)c2ncn(COC(CO)CO)c2n1 [ganciclovir]
cell growth / number of cells under gancyclovir [2]: cell growth is inhibited

BMP-2
ALP activity of normal TDF cell line with BMP-2 injected from the outside [3]: statistically significant ALP activity was not observed
